Source: patent US20100031388A1, “MUTANT HISTIDINE KINASE THAT CONFERS SPONTANEOUS NODULATION IN PLANTS” (Plant Biosciences Ltd., priority 2006, published 2010)
Blank lines part the entries; values can stand above or below the compound they belong to.

What was measured:
[1] = system: Lrr5, Lhk1 and Nin transcripts; experiment: Quantitative RT-PCR of Lrr5, Lhk1 and Nin transcripts in roots and root explants in response to cytokinin; format: in vivo, Lotus japonicus
Description: Steady state levels of Lhk1 and ARR transcripts were determined in roots and other plant organs by quantitative RT-PCR analysis according to the following protocol.
Wild type and snf2 seeds were surface sterilised and germinated as described previously (Handberg, and Stougaard, (1992) Plant J. 2: 487). Plants were grown with 16 h light/8 h dark period at 21° C. Total RNA was isolated from roots, nodules, leaves, flowers and pods of inoculated wild type L. japonicus. mRNA was extracted from roots of wild type and snf2 plants grown for 2 weeks on ¼ B&D (Broughton and Dilworth, (1971) Biochem. J. 125: 1075) supplemented with 0.5 μM potassium nitrate. Roots were treated with 10 μM BAP for three time points, 30 minutes, 3 hours and 8 hours. Untreated roots were taken as control. mRNA was also extracted from root segments of wild type and snf2 plants grown for 10 days on hormone-free B5 salt medium and B5 salt medium supplemented with 0.5 μg/ml of BAP. Dynabeads mRNA direct kit (Invitrogen) was used for the extraction of mRNA.
First strand cDNA was prepared using reverse transcriptase (Fermentas). Quantitative PCR was performed on a Light Cycler (Roche Molecular Biochemicals) using Fast Start DNA master SYBR green kit (Roche) to amplify the target transcripts from 5 μl diluted cDNA. Four house keeping genes (Czechowski et al., (2005) Genome analysis 139: 5) were used to determine the relative expression of target genes (see below). For each treatment, normalized relative ratios of the target genes and the four independent house keeping genes have been calculated using the Relative Quantification Software (Quant) from Roche. The geometric mean (Vandesompele et al., (2002)Genome Biology 3:1) of the relative expression ratios for the three biological and technical replicates and the corresponding 95% intervals of confidence have been calculated as described previously (Radutoiu et al., (2003) Nature 425: 585).

[2] = system: wild type LHK1 cytokinin receptor; details: liquid culture, LHK1 expressing cells (FIG. 5B)
Description: (§1) In this assay cytokinin induction can be determined without interference from endogenous cytokinin levels, cytokinin penetration and interfering metabolic pathways present in plants. The phosphorelay exploited in this assay is normally involved in regulating bacterial extracellular polysaccharide synthesis through activation of the cps operon in response to a sensor (RcsC), which has a domain structure similar to plant cytokinin receptors. Functional expression of a cytokinin receptor in an E. coli strain deleted of RcsC sensor allows cytokinin perception to be read out as β-galactosidase activity from the expression of a cps::lacZ fusion.
(§2) Accordingly the Lhk1 cDNAs, corresponding to wild type and snf2 allele were cloned into the pIN-III expression vector and transformed into the sensor-negative SRC122 (ΔRcsC) strain harbouring the cps::lacZ gene. The transformants were grown overnight in liquid […] and then spotted on LB plates, supplemented with and without t-zeatin, kinetin, BAP (200 μM) each and thidiazuron (50 μM). The LB media was further supplemented with X-Gal (5-bromo-4-chloro-3-indolyl-β-D-[…]), a β-galactosidase substrate. After 40 hours incubation at room temperature (25° C.), the plates were photographed. E coli strain (SRC122) was taken as a negative control.

[3] = system: mutant LHK1 cytokinin receptor (snf2 allele); details: liquid culture, snf2 allele expressing cells (FIG. 5B)
Description: as §1, §2

[4] = system: L. japonicus wild type and snf2 plants; details: increasing concentrations of BAP, 3 weeks (FIG. 8)
Description: Accordingly, wild type and snf2 plants were grown on ½ B5 salt with and without increasing concentrations of BAP for 3 weeks. Shoot and root length of at least 60 plants for each treatment was measured.

cps::lacZ reporter = experiment: Two-component phosphorelay assay in E. coli SRC122 (cps::lacZ), receptor activity read out as β-galactosidase; format: cell-based; details: LB plates with/without t-zeatin, kinetin, BAP (200 μM) or thidiazuron (50 μM), 40 hours, 25° C.
Description: as §1, §2

wild type Lotus roots = experiment: Spontaneous nodulation of wild type hairy roots transformed via A. rhizogenes, scored without rhizobia; format: in vivo, Lotus japonicus; details: scored in absence of M. loti
Description: Transgenic expression of the wild type or mutant snf2 allele in wild type Lotus roots was performed in order to confirm in planta the genetic basis for the spontaneous nodulation phenotype. A genomic fragment of 12.7 kb from the BAC clone 1 K18 was used to clone out the wild type Lhk1 gene including a 2.2 kb promoter region, and its Snf2 allele comprising the C→T transition, which were then sub-cloned into the pIV10 plasmid. The constructs were integrated into A. rhizogenes strain AR12 by tri-parental mating. Transformation was performed as described by Stougaard (1995) Method Mol Biology 49: Plant Gene Transfer and Expression Protocols, p. 49-63, and included transformation with an empty vector control.

Compound: c1ccc(CNc2ncnc3nc[nH]c23)cc1 [BAP, 6-benzylaminopurine]
increase of Lrr5 transcript level ([1]; snf2 and wild-type root explants on B5 medium, 0.5 μg/ml BAP, 10 days (FIG. 7B)): two to three-fold

induction of β-galactosidase activity on cytokinin addition [2]: two fold induction
increase of β-galactosidase activity on cytokinin addition [3]: only a marginal increase
Compound: C/C(=C\CNc1ncnc2nc[nH]c12)CO [Cytokinin, Trans-zeatin]
Lrr5 transcript level ([1]; direct treatment of intact snf2 and wild-type roots, 10 μM BAP, 30 minutes, 3 hours, 8 hours (FIG. 7C)): increased
Lhk1 gene transcripts ([1]; intact wild type and snf2 roots (FIG. 7D)): increase rapidly
Nin gene transcription ([1]; intact wild type and snf2 roots (FIG. 7E)): transcriptionally upregulated
sensitivity of shoot and root growth of snf2 plants compared to wild type [4]: hypersensitive

Compound: Wild type Lhk1 allele: Wild type Lotus histidine kinase gene Lhk1 (SEQ ID NO:1, 2) encoding LHK1 cytokinin receptor protein (SEQ ID NO:3)
β-galactosidase activity, plate assay (X-Gal) (cps::lacZ reporter): induced β-galactosidase activity in a cytokinin-dependent fashion
nodule number/nodulated plant (wild type Lotus roots): 0
nodule number/plant (wild type Lotus roots): 0
% spontaneous nodulation (wild type Lotus roots; (nodulated/total plants)): 0 (0/41) %
